Experimental data as given in a melting point compilation (Tetko et al.; mined from patent text by program, amines drawn as free bases though some values may be those of a salt).

SMILES | melting point
CC1(C)C(=O)N(c2ccc(C#N)c(C(F)(F)F)c2)C(=O)N1C(=O)c1ccccc1 | 179 to 180 °C
CC(=O)OCCc1ccc(-c2csc(=O)s2)cc1 | 55 to 56 °C
c1ccc(C(c2ccccc2)N2CC(n3ccnn3)C2)cc1 | 167 to 168 °C
COc1ccc2cc(C(O)C(C)N3CCC(NC(=O)c4ccccc4)CC3)ccc2c1 (configuration not stated) | 175 to 177 °C
COc1cc2cc3c(Nc4ccc(Sc5nccn5C)c(Cl)c4)c(C#N)cnc3cc2cc1OCCCl | 275 to 280 °C
CCOCn1nccc1C(O)c1ccc(O)c(Cl)c1Cl (configuration not stated) | 150 °C
Cc1c(C(=O)N(CC(=O)O)c2ccc(N3CCC(O)CC3)c(C#N)c2)cnn1-c1ccc(F)cc1 | 155 to 158 °C
CC(=O)Oc1nc(-c2ccc(C)cc2)sc1-c1ccccc1 | 122 to 125 °C
CCOC(=O)C1CCc2sc3ccc(C#N)cc3c2C1 (configuration not stated) | 121 to 122 °C
CC(C)(C)OC(=O)N1CCC(CN2C(=O)C3(COc4cc5c(cc43)CCO5)c3ccccc32)CC1 (configuration not stated) | 96 to 98 °C
CCCNC(=S)Nc1ccc(Oc2nc(OC)cc(OC)n2)c(C(=O)OC)n1 | 218 to 220 °C
CCCCCCCCCCCCCCSCC(O)CNCCO (configuration not stated) | 71.4 to 73.2 °C
Nc1cccc(OCCCN2CCC(c3noc4cc(F)ccc34)CC2)c1 | 115 to 117 °C
CCCN(CCC)C1Cc2cc3c(cc2C1)C(=O)N(Cc1ccc(C#N)cc1)C3 (configuration not stated) | 141 to 145 °C
O=S(=O)(c1ccc(Cl)cc1)N1CCCC1c1ccccc1F (racemic) | 134 °C
COc1c(-c2cccs2)ccc2c(OC)c(-c3cccs3)ccc12 | 225 to 228 °C
CN1CC(=O)N(c2cccnc2)C1=S | 149 to 151 °C
CC(Oc1ccc2c(=O)c(-c3cccc(O)c3)coc2c1)C(=O)O (configuration not stated) | 218 to 219 °C
CC1(CCS)CN2CCCC(C(=O)O)N2C1=O (configuration not stated) | 119 to 122 °C
CC(=O)c1ccc(F)c(COc2ccc(S(=O)(=O)c3ccc(C)nc3Nc3c(C)cc(C)cc3C)cc2)c1 | 141 to 143 °C
N#Cc1ccc(N=C=O)cc1Cl | 198 to 201 °C
COC(=O)Cc1cccc(CCN(C)CCCC(C#N)(c2ccc(OC)c(OC)c2)C(C)C)c1 (configuration not stated) | 77 to 82 °C
CN1CN(C(=O)c2c(F)cccc2F)C(=O)N(c2ccc(Cl)cc2)C1 | 140 °C
CCOc1ccc(Nc2nnc(Cc3ccncc3)c3ccccc23)cc1 | 223 to 224 °C
O=C1c2cc(CCCCOC(=O)C(F)(F)F)ccc2OCc2sccc21 | 65.5 to 67.5 °C

SMILES | melting point
O=C1Nc2cc(Cl)ccc2Cn2nnnc21 | 256 to 259 °C
Cc1ccc(S(=O)(=O)OC[C@@H]2NC(=O)[C@@H]2N=[N+]=[N-])cc1 (relative stereo) | 77 to 78 °C
CCOC(=O)Cc1c(C)n(Cc2ccc(C(C)(C)C)cc2)c2ccc(OCc3csc(-c4ccccc4)n3)cc12 | 119 to 120 °C
C#CC1N(C(=O)Oc2ccccc2)c2cc(OC(=O)C(C)(C)C)ccc2C23OC12CCCC3=O (configuration not stated) | 164 to 166 °C
Cc1ccc2c(c1)OC(C(=O)O)Oc1ccccc1C2 (configuration not stated) | 149 to 152 °C
C=CCOC(=O)N=C(OCC)N1Cc2ccccc2-c2ccccc2C1 | 76 to 77.5 °C
CCc1cc(C(=O)c2ccccc2Cl)c(-n2c(CNC(=O)c3ccc(Cl)c(Cl)c3)nnc2C2CCCCC2)s1 | 206 to 208 °C
CCCCCCCCCCCN(CC)C(=O)N(O)O | 42 to 43 °C
Cc1ccc(-c2c(C(=O)NCc3ccccc3)n(CC[C@@H](C)CO)c(=O)c3ncccc23)cc1 | 226 to 227 °C
CC(=O)N1CCc2ccsc2C1=O | 92 °C
CCOC(=O)c1cn(C(C)CCl)c2cc(Cl)c(F)cc2c1=O (configuration not stated) | 151 to 153 °C
O=Cc1ccnc2ccc(-c3ccccc3)cc12 | 115 °C
OC[C@@H](O)CNCc1ccccc1 | 63 °C
CSc1nc(=O)n(Cc2ccccc2)c2nc[nH]c12 | 215 to 216 °C
CCOCC1=CC(=O)C=C2CCC3C4CCC(=O)C4(C)CCC3C21C (configuration not stated) | 95 to 98 °C
O=C(c1cc2c3ccccc3n(Cc3ccccc3)c2s1)N1CCOCC1 | 199 to 201 °C
COc1ccc(CC(CS)C(=O)Nc2cccc(C(=O)O)c2)cc1 (configuration not stated) | 184 to 185 °C
CC[C@H](C)CNC(=O)C[C@H](O)[C@H](CC(C)C)C(=O)OC(C)(C)C | 83 to 84 °C
Cc1cccc([N+](=O)[O-])c1C(=O)N[C@@H]1c2cc(OC(F)(F)F)ccc2OC(C)(C)[C@H]1O | 204 to 206 °C
COC(=O)C1=C(c2cc(OC)c(OC)c(OC)c2)c2ccccc2S(=O)(=O)N1Cc1ccc2c(c1)OCO2 | 182 to 183 °C
CCOC(=O)CC(=O)c1c(F)cc(Br)cc1F | 49 to 52 °C
OC(c1ccccc1)C1CCN(CCc2ccccc2)CC1 (configuration not stated) | 125 to 128 °C
COc1ccc(C2=CCN(Cc3ccccc3)CC2)cc1OC | 94 to 96 °C
CC(C)c1nc(CN(C)C(=O)N[C@H](C(=O)N[C@@H](Cc2ccccc2)C[C@H](O)[C@H](Cc2ccccc2)NC(=O)OCc2cnco2)C(C)C)cs1 | 59 to 61 °C
CC1(C)C(=O)C(C)(C)c2cc(C(F)CN3CCN(c4nsc5ccccc45)CC3)ccc21 (configuration not stated) | 64 to 73 °C

SMILES | melting point
CCOC(=O)C(Cl)(Cl)CCCCCCCCCCCCSc1ccc(NC(=O)c2ccc(Cl)cc2)cc1 | 130 to 131 °C
COc1cc2cc(-c3ccc4c(c3)OCO4)nc(C)c2cc1OC | 174 °C
Nc1ncccc1-c1nc2ccc(-c3cn[nH]c3)nc2n1-c1ccc(CNC(=O)c2cccc(F)c2)cc1 | 267 to 269 °C
COc1ccc(C(=O)Nc2c(Cl)cncc2Cl)c2c1OCC2CC(=O)Nc1c(Cl)cncc1Cl (configuration not stated) | > 300 °C
COc1ccc(S(=O)(=O)C(C)(CC=Cc2ccccc2)C(=O)NO)cc1 (configuration not stated) | 162 to 164 °C
CC(=O)N1CCc2cc(S(=O)(=O)n3c(CCCC(=O)O)cc4nc(Cl)ccc43)ccc21 | 226 °C
Cc1nn(-c2cc3nc(S(=O)Cc4ccccc4)sc3cc2F)c(=O)n1C (configuration not stated) | 162 to 164 °C
COc1ccc2c(=O)c(-c3ccc(OCC(O)CN4CCOCC4)cc3)coc2c1 (configuration not stated) | 117 to 118 °C
Cc1cc(C)cc(-c2nc(N)sc2-c2ccnc(NC(=O)c3ccccc3)c2)c1 | 120 to 123 °C
CC(N)C(Cc1ccc(OCc2ccccc2)cc1)CC(O)c1ccccc1F (configuration not stated) | 162 to 163 °C
O=c1c2cccnc2n(-c2cccc(Cl)c2)c2ccsc12 | 264 to 267 °C
O=C(O)CSc1nc(-n2cc(C3c4ccccc4C=Cc4ccccc43)c(=S)[nH]c2=O)ncc1-c1ccc(CC(=O)O)cc1 | 280 °C
CCc1cc(Oc2c(Cl)cc(C(F)(F)F)cc2Cl)n[nH]1 | 118 to 121 °C
Cc1ccc(-c2c(NS(=O)(=O)c3cccc4ccccc34)ncnc2OCCOc2ncc(Br)cn2)cc1 | 204 °C
Cc1ccc(C(=O)N2CCc3nnc(NN=C4CCCCC4)cc3C2)cc1 | 208 to 210 °C
N#CSCC1CC(=O)N(c2ccc(F)cc2)C1=O (configuration not stated) | 88 °C
CS(=O)(=O)Nc1ccc(C#CCCN2CC=C(c3ccccc3)CC2)nc1 | 138 to 139 °C
NC(=S)Nc1c(Cl)cccc1Cl | 158 to 160 °C
Nc1ccc(C(=S)SCCO)cc1 | 87.5 to 89.5 °C
O=C(O)CCC=C(c1ccc(F)cc1)c1ccc(F)cc1 | 100 °C
CC1Cc2cc(S(=O)(=O)n3cc(-c4ccccc4)[nH]c3=O)ccc2N1C(=O)CCl (configuration not stated) | 157 to 159 °C
CC1=C(C(=O)OCCOc2ccccc2)C(c2ccccc2C(F)(F)F)c2c(ccnc2OCC(C)C)N1 (configuration not stated) | 108 to 109 °C
CS(=O)(=O)c1ccc(-c2cc(F)c(F)cc2-c2ccc3c(c2)OCO3)cc1 | 110 to 111 °C
CCCCCCCCOC(=O)CCCCCNC(=O)c1cc(OCc2ccccc2)ccc1OCc1ccccc1 | 48 to 50 °C
O=c1ncc(Cl)cn1CSc1ccc([N+](=O)[O-])cc1 | 165 °C

SMILES | melting point
O=C(Cn1ncc(-c2ccccc2)c1-c1ccccc1)NCCCN1CCCC1 | 75 to 79 °C
CC(=O)CCCCCCC(=O)c1ccc(OCc2ccccc2)c(OCc2ccccc2)c1 | 64 to 66 °C
Cc1c(Cl)cccc1S(=O)(=O)Nc1ccc2c(c1)nc(C)n2C | 283 to 284 °C
CC(COc1ccc2c(c1)C(=O)NC(C)(C)O2)NCc1ccccc1 (configuration not stated) | 127 to 129 °C
N#CC1=C(C2CCCC2)Nc2n[nH]cc2C1c1cccc2nonc12 (configuration not stated) | 193 °C
O=C(NNc1ccc(Cl)cc1Cl)C(F)(F)F | 127 to 128 °C
CS(=O)(=O)N1CCC(NC(=O)Nc2ccc(OC(F)(F)F)cc2)CC1 | 233 to 234 °C
CCOC(=O)COc1c(Cl)c(Cl)c2c(-c3ccccc3F)noc2c1Cl | 140 to 143 °C
Cc1cc(O)c(SCc2cccc(F)c2)c(=O)o1 | 124 °C
O=C1CC(O)CC(/C=C/c2ccccc2-c2ccccc2)O1 (configuration not stated) | 89 to 91 °C
C=C(Br)Cc1c(O)ccc2c(C)cc(=O)oc12 | 201 to 202 °C
CC[C@H](C)[C@H](OCc1ccccc1)[C@H]1[C@H]([N+](=O)[O-])[C@H](c2ccccc2)N[C@@H]1C(=O)NCC(=O)O | 156 to 157 °C
CC(=O)c1cc(C(F)(F)F)nn1-c1ccc(NC(=O)c2ccccc2F)cc1 | 188 to 189 °C
CCOC(=O)c1cn(-c2cccnc2)nc1Br | 94 to 95 °C
COc1ccc(C=CC(=O)N2CCc3c([nH]c4ccccc34)C2c2ccc3c(c2)OCO3)cc1OC (configuration not stated) | 233 °C
CC(C)Oc1cc(Oc2ccc(S(C)(=O)=O)cn2)cc2cc(C3=NCC(CC(N)=O)S3)[nH]c12 (configuration not stated) | 212 to 213 °C
CCn1nc(C)cc1N | 95 to 96 °C
CN(C(=S)Nc1ccccc1)C1CCN(CCc2c[nH]c3ccccc23)CC1 | 194 °C
CC(O)CN(Oc1ccccc1C1CCCCC1)C1CCCC(C2CNC(=O)N2)C1 (configuration not stated) | 117 to 120 °C
Cn1c(C(F)F)nn(-c2cc(O)c(Cl)cc2Cl)c1=O | 176 to 179 °C
CNC(=O)c1nc(C)n2c1CN=C(c1ccccc1)c1cc(Cl)ccc1-2 | 260 to 263 °C
OC1(c2ccccc2Cc2ccccc2)CCN(CC2CC2)C1 (configuration not stated) | 118 to 120 °C
